Data on 41 compounds can be found in patent US20220169639A1 (priority 2018, published 2022).

Molecules are shown by their SMILES. pIC50: −log10 of the molar value. Some results are limits rather than exact numbers.

The subject of this experiment is HBeAg (surrogate marker for cccDNA) in HepDES19 cells. The experiment is described as follows: Engineered HepDES19 primary screen assay (HBeAg ELISA). The following applies: Hepatitis B virus, 120 h, HBeAg in culture supernatant, 5 days incubation, read-out: IC50 (HepDES19 primary screen assay, inhibition of extracellular HBeAg level). The experiment is classed as cell-based, HBV. An outline of the steps:
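HepDES19 cells pre-induced by Tet withdrawal for 8 days, frozen, then seeded and dosed after 24 h with half-log compound dilutions (1% DMSO final). After 5 days at 37 °C, HBeAg measured by ELISA and viability by CCK-8; IC50 from 4-parameter logistic fit.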
A general note: An ELISA detects its analyte on a solid surface through an enzyme-linked reagent.
`Cc1ccc(-c2cc(=O)c3cccc(Cl)c3o2)c(OCCCNC(=O)C(=O)O)c1` [Example 120]: the pIC50 is 5.53.

As to `Cc1ccc(-c2cc(=O)c3cccc(Cl)c3o2)c(OCCNC(=O)C(=O)O)c1` [Example 121], the pIC50 was 5.37.

Take `COc1cc(OCCNC(=O)C(=O)O)c(-c2cc(=O)c3cccc(Cl)c3o2)cc1Br` [Example 122]: the pIC50 is 5.11.

In the case of `O=C(O)CNCCOc1cc(C(F)(F)F)ccc1-c1cc(=O)c2cccc(Cl)c2o1` [Example 123], the pIC50 was 5.29.

As to `O=C(O)CCNCCOc1cc(C(F)(F)F)ccc1-c1cc(=O)c2cccc(Cl)c2o1` [Example 124], the negative logarithm of the IC50 (pIC50) was 5.23.

On to `O=C(O)C(=O)N1CC(Oc2cc(C(F)(F)F)ccc2-c2cc(=O)c3cccc(Cl)c3o2)C1` [Example 127], for which the pIC50 is 7.10.

Take `O=C(O)c1cccc(CN2CCC(Oc3cc(Br)ccc3-c3cc(=O)c4cccc(Cl)c4o3)CC2)c1` [Example 128]: the pIC50 was 6.57.

Take `O=C(O)C(=O)N1CCC(Oc2cc(C(F)(F)F)ccc2-c2cc(=O)c3cccc(Cl)c3o2)CC1` [Example 129]: the pIC50 was 5.32.

On to `O=C(O)C(=O)N1CC[C@@H](Oc2cc(C(F)(F)F)ccc2-c2cc(=O)c3cccc(Cl)c3o2)C1` [Example 130], for which the pIC50 is 5.32.

`Cc1ccc(-c2cc(=O)c3cccc(Cl)c3o2)c(O[C@H]2CCN(C(=O)C(=O)O)C2)c1` [Example 132]: the pIC50 is 6.46.

With `CN(CCCOc1cc(C(F)(F)F)ccc1-c1cc(=O)c2cccc(Cl)c2o1)CC(=O)O` [Example 134, 2-[3-[2-(8-chloro-4-oxo-chromen-2-yl)-5-(trifluoromethyl)phenoxy]propyl-methyl-amino]acetic acid], the pIC50 is 5.09.

Take `Cc1ccc(-c2cc(=O)c3cccc(Cl)c3o2)c(OCCN(C(=O)C(=O)O)C2CC2)c1` [Example 135, 2-[2-[2-(8-chloro-4-oxo-chromen-2-yl)-5-methyl-phenoxy]ethyl-cyclopropyl-amino]-2-oxo-acetic acid]: the pIC50 is 6.68.

For the compound `CCNS(=O)(=O)N(C)CCOc1cc(C)ccc1-c1cc(=O)c2cccc(Cl)c2o1` [Example 136, 8-chloro-2-[2-[2-[ethylsulfamoyl(methyl)amino]ethoxy]-4-methyl-phenyl]-4-oxo-chromene], the pIC50 is 6.24.

Consider `CCOC(=O)C(=O)N(C)CCOc1cc(C)ccc1-c1cc(=O)c2cccc(Cl)c2o1` [Example 137, ethyl 2-[2-[2-(8-chloro-4-oxo-chromen-2-yl)-5-methyl-phenoxy]ethyl-methyl-amino]-2-oxo-acetate], for which the pIC50 is 5.47.

As to `CCOC(=O)C(=O)N(CCCOc1cc(C(F)(F)F)ccc1-c1cc(=O)c2cccc(Cl)c2o1)S(=O)(=O)CC` [Example 138, ethyl 2-[3-[2-(8-chloro-4-oxo-chromen-2-yl)-5-(trifluoromethyl)phenoxy]propyl-ethylsulfonyl-amino]-2-oxo-acetate], the negative-log IC50 (pIC50) was 5.34.

On to `O=C(O)C1CC(N(CCCOc2cc(C(F)(F)F)ccc2-c2cc(=O)c3cccc(Cl)c3o2)S(=O)(=O)C2CC2)C1` (centres unmarked) [Example 139, 3-[3-[2-(8-chloro-4-oxo-chromen-2-yl)-5-(trifluoromethyl)phenoxy]propyl-cyclopropylsulfonyl-amino]cyclobutanecarboxylic acid], for which the pIC50 was 4.99.

Consider `O=C(O)CN(CCCOc1cc(C(F)(F)F)ccc1-c1cc(=O)c2cccc(Cl)c2o1)CC(=O)O` [Example 140], for which the pIC50 is 6.72.

In the case of `O=c1cc(-c2ccc(C(F)(F)F)cc2OCCCN([C@H]2C[C@@H](C(=O)O)C2)S(=O)(=O)c2ccccc2)oc2c(Cl)cccc12` [Example 141], the pIC50 was 6.46.

For `O=c1cc(-c2ccc(C(F)(F)F)cc2OCCCN([C@H]2C[C@H](C(=O)O)C2)S(=O)(=O)c2ccccc2)oc2c(Cl)cccc12` [Example 142], the negative logarithm of the IC50 (pIC50) was 6.13.

`O=C(O)CN(CCCOc1cc(C(F)(F)F)ccc1-c1cc(=O)c2cccc(Cl)c2o1)S(=O)(=O)c1ccccc1` [Example 143]: the pIC50 is 5.62.

Regarding `CC(=O)N(CCCOc1cc(C(F)(F)F)ccc1-c1cc(=O)c2cccc(Cl)c2o1)CC(=O)O` [Example 144], the pIC50 was 4.94.

Regarding `O=C(O)CN(CCCOc1cc(C(F)(F)F)ccc1-c1cc(=O)c2cccc(Cl)c2o1)S(=O)(=O)C1CC1` [Example 145], the pIC50 was 4.84.

Take `COc1ccc(-c2cc(=O)c3cccc(Cl)c3o2)c(OCCNC(=O)C(N)=O)c1` [Example 147, N′-[2-[2-(8-chloro-4-oxo-chromen-2-yl)-5-methoxy-phenoxy]ethyl]oxamide]: the pIC50 was 5.92.

On to `O=C(NCCOc1cc(C(F)(F)F)ccc1-c1cc(=O)c2cccc(Cl)c2o1)C(=O)NC1CC1` [Example 148, N-[2-[2-(8-chloro-4-oxo-chromen-2-yl)-5-(trifluoromethyl)phenoxy]ethyl]-N′-cyclopropyl-oxamide], for which the negative logarithm of the IC50 (pIC50) was 5.92.

With `O=C(NCCCOc1cc(C(F)(F)F)ccc1-c1cc(=O)c2cccc(Cl)c2o1)C(=O)NS(=O)(=O)C1CC1` [Example 149, N-[3-[2-(8-chloro-4-oxo-chromen-2-yl)-5-(trifluoromethyl)phenoxy]propyl]-N′-cyclopropylsulfonyl-oxamide], the pIC50 was 5.06.

Turning to `Cc1ccc(-c2cc(=O)c3cccc(Cl)c3o2)c(OCCNC(=O)C(=O)N2CC[C@H](O)C2)c1` [Example 150, N-[2-[2-(8-chloro-4-oxo-chromen-2-yl)-5-methyl-phenoxy]ethyl]-2-[(3S)-3-hydroxypyrrolidin-1-yl]-2-oxo-acetamide], the pIC50 was 4.91.

In the case of `Cc1ccc(-c2cc(=O)c3cccc(Cl)c3o2)c(OCCNC(=O)N[C@@H](C)C(=O)O)c1` [Example 151, (2S)-2-[2-[2-(8-chloro-4-oxo-chromen-2-yl)-5-methyl-phenoxy]ethylcarbamoylamino]propanoic acid], the negative logarithm of the IC50 (pIC50) is 6.20.

As for `Cc1ccc(-c2cc(=O)c3cccc(Cl)c3o2)c(OCCN2C(=O)N[C@@H](C(C)C)C2=O)c1` [Example 152], the pIC50 is 6.32.

Regarding `CC(C)[C@@H]1NC(=O)N(CCOc2cc(C(F)(F)F)ccc2-c2cc(=O)c3cccc(Cl)c3o2)C1=O` [Example 153], the pIC50 is 6.08.

Turning to `Cc1ccc(-c2cc(=O)c3cccc(Cl)c3o2)c(OCCNC(=O)NCC(=O)O)c1` [Example 154], the negative-log IC50 (pIC50) was 5.84.

`C[C@@H]1NC(=O)N(CCOc2cc(C(F)(F)F)ccc2-c2cc(=O)c3cccc(Cl)c3o2)C1=O` [Example 155]: the negative logarithm of the IC50 (pIC50) was 5.29.

As to `Cc1ccc(S(=O)(=O)NC(=O)NCCCOc2cc(C)ccc2-c2cc(=O)c3cccc(Cl)c3o2)cc1` [Example 156, 1-[3-[2-(8-chloro-4-oxo-chromen-2-yl)-5-methyl-phenoxy]propyl]-3-(p-tolylsulfonyl)urea], the pIC50 is 5.38.

Turning to `Cc1ccc(S(=O)(=O)NC(=O)NCCOc2cc(C(F)(F)F)ccc2-c2cc(=O)c3cccc(Cl)c3o2)cc1` [Example 158, 1-[2-[2-(8-chloro-4-oxo-chromen-2-yl)-5-(trifluoromethyl)phenoxy]ethyl]-3-(p-tolylsulfonyl)urea], the pIC50 was 5.08.

Regarding `NS(=O)(=O)NCCOc1cc(C(F)(F)F)ccc1-c1cc(=O)c2cccc(Cl)c2o1` [Example 159, 8-chloro-4-oxo-2-[2-[2-(sulfamoylamino)ethoxy]-4-(trifluoromethyl)phenyl]chromene], the negative logarithm of the IC50 (pIC50) was 6.08.

With `Cc1ccc(-c2cc(=O)c3cccc(Cl)c3o2)c(OCCNS(N)(=O)=O)c1` [Example 161, 8-chloro-2-[4-methyl-2-[2-(sulfamoylamino)ethoxy]phenyl]-4-oxo-chromene], the pIC50 was 5.32.

On to `O=C(O)C(=O)N1CCN(CCOc2cc(C(F)(F)F)ccc2-c2cc(=O)c3cccc(Cl)c3o2)C1=O` [Example 162, 2-[3-[2-[2-(8-chloro-4-oxo-chromen-2-yl)-5-(trifluoromethyl)phenoxy]ethyl]-2-oxo-imidazolidin-1-yl]-2-oxo-acetic acid], for which the pIC50 was 7.10.

On to `O=C(O)[C@H]1CCN(CC(O)COc2cc(C(F)(F)F)ccc2-c2cc(=O)c3cccc(Cl)c3o2)C1` (stereo partly drawn) [Example 163, (3S)-1-[3-[2-(8-chloro-4-oxo-chromen-2-yl)-5-(trifluoromethyl)phenoxy]-2-hydroxy-propyl]pyrrolidine-3-carboxylic acid], for which the negative-log IC50 (pIC50) was 5.56.

Regarding `CC(NCCOc1cc(C(F)(F)F)ccc1-c1cc(=O)c2cccc(Cl)c2o1)C(N)=O` (centres unmarked) [Example 168, 2-[2-[2-(8-chloro-4-oxo-chromen-2-yl)-5-(trifluoromethyl)phenoxy]ethylamino]propanamide], the pIC50 is 5.94.

With `O=C(O)C1CC(=O)N(CCCOc2cc(Br)ccc2-c2cc(=O)c3cccc(Cl)c3o2)C1` (centres unmarked) [Example 169, 1-[3-[5-bromo-2-(8-chloro-4-oxo-chromen-2-yl)phenoxy]propyl]-5-oxo-pyrrolidine-3-carboxylic acid], the pIC50 was 6.00.

Consider `O=c1cc(-c2ccccc2O)oc2cc(O)ccc12` [Example F-1, 7-hydroxy-2-(2-hydroxyphenyl)chromen-4-one, reference compound], for which the pIC50 is under 4.30.

`COc1ccc2oc(-c3ccccc3OC)cc(=O)c2c1` [Example F-2, 6-methoxy-2-(2-methoxyphenyl)chromen-4-one, reference compound]: the pIC50 is under 4.30.

A word on the pIC50: it is −log10 of the IC50, conventionally taken in molar units.
